Like-named read-outs stand apart in the source and are kept apart here.

Consider five molecules from article PMC7893915, “Assessing cross-resistance within the pyrethroids in terms of their interactions with key cytochrome P450 enzymes and resistance in vector populations” (Parasites & Vectors, 2021).

Series [1] deals with CYP6M2, CYP6P3 and CYP6P9a. Description: Pyrethroid metabolism (insecticide depletion), across CYP6M2, CYP6P3 and CYP6P9a. Type of series: in vitro ADME, Anopheles gambiae and An. funestus. To be noted: mean ± SD across CYP6M2, CYP6P3, CYP6P9a. From the text:
In this study, the half maximal inhibitory concentration (IC50), which provides a value for inhibition of each P450 by each pyrethroid (also referred to as ‘binding affinity’), and the percentage depletion, which gives a value for metabolism of each pyrethroid by each P450 (also referred to as vulnerability to metabolic attack), were both included as parameters to establish a P450s structural activity relationship model. This model was used to understand both the chemistry of the pyrethroids and the interaction with mosquito P450s that function as monooxygenases in metabolic resistance, to predict cross-resistance liabilities in vivo. […] A low percentage depletion indicates low metabolism of the pyrethroid, which means that it may be less vulnerable to resistance mediated by P450s.
The values for percentage depletion (metabolism) of each pyrethroid by three of the enzymes CYP6M2, CYP6P3 and CYP6P9a, which were expressed in a single plasmid construct, were also extracted from the same sources and used for the comparative analysis.

Series [2] relates to An. funestus strain, FUMOZ-R. Details: method as in PMID 26930058. As to conditions: strain with upregulated P450 levels without any target-site mutations; ref [47]; cited from earlier work.
The test system of series [3] is CYP6M2. As to conditions: Incubation time 2h; mean ± SD; ref [38], [41]; cited from earlier work.
The test system of series [4] is CYP6P3. As to conditions: Incubation time 2h; mean ± SD; ref [38], [41]; cited from earlier work.
Series [5] relates to CYP6P9a. To be noted: Incubation time 2h; mean ± SD; ref [38], [41]; cited from earlier work.
Series [6] deals with Anopheles arabiensis. As to conditions: F0, larval collection, Sudan, WHO Bioassay 1998, ref Abdalla H et al. Parasites Vectors. 2014;7:213, cited from earlier work.

Consider `CC1(C)C(C=C(Cl)Cl)C1C(=O)OC(C#N)c1cccc(Oc2ccccc2)c1` (stereo not drawn) [Cypermethrin], for which, in series [1], the “% Insecticide depletion Mean across P450s” value was 74.9 ± 33.3%. Moreover, the “effectiveness with or without piperonyl butoxide (PBO), in words” value in series [2] was “only effective when partnered with PBO”. Moreover, the “% Insecticide depletion CYP6M2” value in series [3] was 36.8 ± 1.8%. Further, the “% Insecticide depletion CYP6P3” value in series [4] is 98.4 ± 0.1%. The “% Insecticide depletion CYP6P9a” value in series [5] is recorded as 89.5 ± 2.7%.
As to `Clc1ccc(C(c2ccc(Cl)cc2)C(Cl)(Cl)Cl)cc1` [DDT, dichlorodiphenyltrichloroethane], the mortality is recorded as 93 in series [6] (10/2009-11/2009, El Managil); 58 in series [6] (10/2009-11/2009, Rufaa); 74 in series [6] (10/2009-11/2009, Wad El Hadad); 69 in series [6] (10/2010-11/2010, Wad El Hadad); 70 in series [6] (10/2010-11/2010, Wad Medani).
Take `CNC(=O)Oc1cccc2c1OC(C)(C)O2` [bend, bendiocarb]: the mortality is 100 in series [6] (10/2009-11/2009, El Managil); 100 in series [6] (10/2009-11/2009, Rufaa); 100 in series [6] (10/2009-11/2009, Wad El Hadad); 100 in series [6] (10/2010-11/2010, Wad El Hadad); 100 in series [6] (10/2010-11/2010, Wad Medani).
In the case of `COP(=S)(OC)Oc1ccc([N+](=O)[O-])c(C)c1` [feni, fenitrothion], the mortality in series [6] (10/2009-11/2009, El Managil) is 100; in series [6] (10/2009-11/2009, Rufaa) it was 100; in series [6] (10/2009-11/2009, Wad El Hadad), 100; in series [6] (10/2010-11/2010, Wad El Hadad), 100; in series [6] (10/2010-11/2010, Wad Medani), 100.
Take `CC1(C)C(C=C(Cl)Cl)C1C(=O)OC(C#N)c1ccc(F)c(Oc2ccccc2)c1` (stereo not drawn) [ß-cyfluthrin]: the “effectiveness with or without piperonyl butoxide (PBO), in words” value in series [2] is “only effective when partnered with PBO”.
